Laboratory results reported in PMC4527083 (European journal of pharmacology, 2014).

Target: HERG potassium channel (human ether-a-go-go related gene) (Homo sapiens, UniProt Q12809)
Assay: cell-based

Chain of HERG potassium channel (human ether-a-go-go related gene) (Q12809 whole entry): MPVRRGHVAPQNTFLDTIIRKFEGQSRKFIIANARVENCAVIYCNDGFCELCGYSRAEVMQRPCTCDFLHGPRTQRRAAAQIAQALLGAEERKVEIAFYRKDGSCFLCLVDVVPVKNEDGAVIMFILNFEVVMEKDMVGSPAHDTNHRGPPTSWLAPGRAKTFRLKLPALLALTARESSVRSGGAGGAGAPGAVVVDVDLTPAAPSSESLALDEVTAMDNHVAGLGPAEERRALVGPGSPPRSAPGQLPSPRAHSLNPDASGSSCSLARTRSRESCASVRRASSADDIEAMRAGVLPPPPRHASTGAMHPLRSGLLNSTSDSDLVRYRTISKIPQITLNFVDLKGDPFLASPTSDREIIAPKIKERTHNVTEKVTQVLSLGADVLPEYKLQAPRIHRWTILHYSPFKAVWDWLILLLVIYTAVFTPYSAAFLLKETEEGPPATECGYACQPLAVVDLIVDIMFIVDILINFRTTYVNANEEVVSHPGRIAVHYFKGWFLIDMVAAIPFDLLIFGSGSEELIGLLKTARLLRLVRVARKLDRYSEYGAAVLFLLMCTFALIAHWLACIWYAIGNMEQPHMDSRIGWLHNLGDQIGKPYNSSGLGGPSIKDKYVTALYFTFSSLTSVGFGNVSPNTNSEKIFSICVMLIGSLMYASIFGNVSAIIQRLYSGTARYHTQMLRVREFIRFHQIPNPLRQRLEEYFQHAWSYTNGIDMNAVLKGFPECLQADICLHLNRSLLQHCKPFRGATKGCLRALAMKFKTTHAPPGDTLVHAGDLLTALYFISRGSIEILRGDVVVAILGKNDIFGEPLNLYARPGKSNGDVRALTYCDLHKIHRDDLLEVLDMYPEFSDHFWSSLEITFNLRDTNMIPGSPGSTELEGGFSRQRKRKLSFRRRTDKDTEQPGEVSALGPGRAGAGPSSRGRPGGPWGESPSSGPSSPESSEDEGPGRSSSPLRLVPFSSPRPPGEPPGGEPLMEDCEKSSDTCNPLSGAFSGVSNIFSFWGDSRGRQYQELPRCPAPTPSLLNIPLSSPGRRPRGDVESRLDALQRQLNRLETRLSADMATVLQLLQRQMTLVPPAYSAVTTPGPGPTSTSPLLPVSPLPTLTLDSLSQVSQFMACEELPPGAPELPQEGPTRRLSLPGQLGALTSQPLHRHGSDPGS

`CCCCCCCCCCCC[N+](C)(C)CCOc1ccccc1` [DB, domiphen bromide] gave an IC50 of 9 nM.
